Results reported in patent US6737383B1, “Herbicidal oxadiazolidines” (priority 1999, dated 2004).

What was measured:
[1] = tested on: bedstraw; assay: Test B pre/postemergence bedstraw; type: in vivo, Galium aparine
Method in brief: (§1)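 Test chemicals in a non-phytotoxic solvent mixture with surfactant were sprayed preemergence onto planted seeds and postemergence onto plants 2 to 18 cm tall (1- to 4-leaf stage). After twelve to sixteen days in a greenhouse, injury was visually rated against untreated controls from 0 (no effect) to 10 (complete control).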

[2] = tested on: blackgrass; assay: Test B pre/postemergence blackgrass; type: in vivo, Alopecurus myosuroides
Method in brief: as §1

[3] = tested on: surinam grass; assay: Test B pre/postemergence surinam grass; type: in vivo, Brachiaria decumbens
Method in brief: as §1

[4] = tested on: cocklebur; assay: Test B pre/postemergence cocklebur; type: in vivo, Xanthium strumarium
Method in brief: as §1

[5] = tested on: corn; assay: Test B pre/postemergence corn; type: in vivo, Zea mays
Method in brief: as §1

[6] = tested on: crabgrass; assay: Test B pre/postemergence crabgrass; type: in vivo, Digitaria sanguinalis
Method in brief: as §1

[7] = tested on: pigweed; assay: Test B pre/postemergence pigweed; type: in vivo, Amaranthus retroflexus
Method in brief: as §1

[8] = tested on: rape; assay: Test B pre/postemergence rape; type: in vivo, Brassica napus
Method in brief: as §1

[9] = tested on: soybean; assay: Test B pre/postemergence soybean; type: in vivo, Glycine max
Method in brief: as §1

[10] = tested on: sugar beet; assay: Test B pre/postemergence sugar beet; type: in vivo, Beta vulgaris
Method in brief: as §1

[11] = tested on: velvetleaf; assay: Test B pre/postemergence velvetleaf; type: in vivo, Abutilon theophrasti
Method in brief: as §1

[12] = tested on: wheat; assay: Test B pre/postemergence wheat; type: in vivo, Triticum aestivum
Method in brief: as §1

[13] = tested on: wild oat; assay: Test B pre/postemergence wild oat; type: in vivo, Avena fatua
Method in brief: as §1

[14] = tested on: purple nutsedge; assay: Test B pre/postemergence purple nutsedge; type: in vivo, Cyperus rotundus; settings: Postemergence
Method in brief: as §1

[15] = tested on: smallflower flatsedge; assay: Test B flood test smallflower flatsedge; type: in vivo, Cyperus difformis
Method in brief: (§2)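 Each value is a visual injury score relative to controls, with 10 meaning complete control and 0 no effect. Evaluation took place twelve to sixteen days after the 2-leaf-stage plants were treated and kept in the greenhouse.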

[16] = tested on: bamyardgrass; assay: Test B flood test barnyardgrass; type: in vivo, Echinochloa crus-galli
Method in brief: as §2

[17] = Preemergence, Rate 62 g/ha, scale of 0 to 10 where 0 is no effect and 10 is complete control
[18] = Preemergence, Rate 250 g/ha, scale of 0 to 10 where 0 is no effect and 10 is complete control
[19] = Preemergence, Rate 500 g/ha, scale of 0 to 10 where 0 is no effect and 10 is complete control
[20] = Rate 62 g/ha, Postemergence, scale of 0 to 10 where 0 is no effect and 10 is complete control
[21] = Rate 125 g/ha, Postemergence, scale 0 to 10
[22] = Rate 125 g/ha, Preemergence, scale of 0 to 10 where 0 is no effect and 10 is complete control
[23] = Rate 500 g/ha, Postemergence, scale 0 to 10, 0 no effect, 10 complete control
[24] = Rate 62 g/ha, headed Pre-emergence (flood test species), scale 0 to 10 (0 no effect, 10 complete control)
[25] = Rate 125 g/ha, Pre-emergence, flood test species, scale 0 to 10 where 0 is no effect and 10 is complete control
[26] = Rate 250 g/ha, Pre-emergence, flood-test species, scale 0 to 10, 0 is no effect, 10 is complete control
[27] = Rate 500 g/ha, Pre-emergence, flood test species, scale 0 to 10 (0 no effect, 10 complete control)

Compound: CC(C)N(C(=O)n1oc(=O)n(CC2(C)COC2)c1=O)c1ccc(F)cc1 [Compound 226]
- Bedstraw plant response rating [1, 17]: 0
- Bedstraw plant response rating [1, 18]: 0
- Plant response rating, Bedstraw [1, 19]: 0
- Bedstraw plant response rating [1, 20]: 0
- Bedstraw plant response rating [1, 21]: 3
- Bedstraw plant response rating [1, 22]: 0
- Plant response rating (0 to 10; 0 is no effect, 10 is complete control), Bedstraw ([1]; Rate 250 g/ha, Postemergence): 5
- Bedstraw plant response rating [1, 23]: 7
- Blackgrass plant response rating [2, 17]: 10
- Blackgrass plant response rating [2, 18]: 10
- Plant response rating, Blackgrass [2, 19]: 10
- Blackgrass plant response rating [2, 20]: 0
- Blackgrass plant response rating [2, 21]: 5
- Blackgrass plant response rating [2, 22]: 10
- Plant response rating (0 to 10; 0 is no effect, 10 is complete control), Blackgrass ([2]; Rate 250 g/ha, Postemergence): 8
- Blackgrass plant response rating [2, 23]: 9
- B. signalgrass plant response rating [3, 17]: 3
- B. signalgrass plant response rating ([3]; Preemergence, Rate 250 g/ha, scale 0 to 10, 0 is no effect, 10 is complete control): 9
- Plant response rating, B. signalgrass [3, 19]: 10
- B. signalgrass plant response rating [3, 20]: 0
- B. signalgrass plant response rating ([3]; Rate 125 g/ha, Postemergence, scale 0 (no effect) to 10 (complete control)): 2
- B. signalgrass plant response rating [3, 22]: 6
- Plant response rating (0 to 10; 0 is no effect, 10 is complete control), B. signalgrass ([3]; Rate 250 g/ha, Postemergence): 6
- B. signalgrass plant response rating [3, 23]: 9
- Cocklebur plant response rating [4, 17]: 0
- Cocklebur plant response rating [4, 18]: 0
- Plant response rating, Cocklebur [4, 19]: 0
- Cocklebur plant response rating [4, 20]: 0
- Cocklebur plant response rating [4, 21]: 0
- Cocklebur plant response rating [4, 22]: 0
- Plant response rating (0 to 10; 0 is no effect, 10 is complete control), Cocklebur ([4]; Rate 250 g/ha, Postemergence): 0
- Cocklebur plant response rating [4, 23]: 2
- Corn plant response rating [5, 17]: 0
- Corn plant response rating [5, 18]: 6
- Plant response rating, Corn [5, 19]: 9
- Corn plant response rating [5, 20]: 0
- Corn plant response rating [5, 21]: 0
- Corn plant response rating [5, 22]: 0
- Plant response rating (0 to 10; 0 is no effect, 10 is complete control), Corn ([5]; Rate 250 g/ha, Postemergence): 0
- Corn plant response rating [5, 23]: 6
- Crabgrass plant response rating [6, 17]: 5
- Crabgrass plant response rating [6, 18]: 10
- Plant response rating, Crabgrass [6, 19]: 10
- Crabgrass plant response rating [6, 20]: 0
- Crabgrass plant response rating [6, 21]: 0
- Crabgrass plant response rating [6, 22]: 9
- Plant response rating (0 to 10; 0 is no effect, 10 is complete control), Crabgrass ([6]; Rate 250 g/ha, Postemergence): 3
- Crabgrass plant response rating [6, 23]: 8
- Redroot pigweed plant response rating [7, 17]: 0
- Redroot pigweed plant response rating [7, 18]: 7
- Plant response rating, Redroot pigweed [7, 19]: 9
- Redroot pigweed plant response rating [7, 20]: 0
- Redroot pigweed plant response rating [7, 21]: 0
- Redroot pigweed plant response rating [7, 22]: 0
- Plant response rating (0 to 10; 0 is no effect, 10 is complete control), Redroot pigweed ([7]; Rate 250 g/ha, Postemergence): 0
- Redroot pigweed plant response rating [7, 23]: 0
- Rape plant response rating [8, 17]: 0
- Rape plant response rating [8, 18]: 7
- Plant response rating, Rape [8, 19]: 10
- Rape plant response rating [8, 20]: 0
- Rape plant response rating [8, 21]: 0
- Rape plant response rating [8, 22]: 0
- Plant response rating (0 to 10; 0 is no effect, 10 is complete control), Rape ([8]; Rate 250 g/ha, Postemergence): 0
- Rape plant response rating [8, 23]: 6
- Soybean plant response rating [9, 17]: 0
- Soybean plant response rating [9, 18]: 0
- Plant response rating, Soybean [9, 19]: 0
- Soybean plant response rating [9, 20]: 2
- Soybean plant response rating [9, 21]: 2
- Soybean plant response rating [9, 22]: 0
- Plant response rating (0 to 10; 0 is no effect, 10 is complete control), Soybean ([9]; Rate 250 g/ha, Postemergence): 3
- Soybean plant response rating [9, 23]: 6
- Sugarbeets plant response rating [10, 17]: 0
- Sugarbeets plant response rating [10, 18]: 5
- Plant response rating, Sugarbeets [10, 19]: 6
- Sugarbeets plant response rating [10, 20]: 0
- Sugarbeets plant response rating [10, 21]: 0
- Sugarbeets plant response rating [10, 22]: 3
- Plant response rating (0 to 10; 0 is no effect, 10 is complete control), Sugarbeets ([10]; Rate 250 g/ha, Postemergence): 0
- Sugarbeets plant response rating [10, 23]: 2
- Velvetleaf plant response rating [11, 17]: 2
- Velvetleaf plant response rating [11, 18]: 6
- Plant response rating, Velvetleaf [11, 19]: 7
- Velvetleaf plant response rating [11, 20]: 0
- Velvetleaf plant response rating [11, 21]: 0
- Velvetleaf plant response rating [11, 22]: 5
- Plant response rating (0 to 10; 0 is no effect, 10 is complete control), Velvetleaf ([11]; Rate 250 g/ha, Postemergence): 0
- Velvetleaf plant response rating [11, 23]: 0
- Wheat plant response rating [12, 17]: 6
- Wheat plant response rating [12, 18]: 8
- Plant response rating, Wheat [12, 19]: 8
- Wheat plant response rating [12, 20]: 2
- Wheat plant response rating [12, 21]: 4
- Wheat plant response rating [12, 22]: 8
- Plant response rating (0 to 10; 0 is no effect, 10 is complete control), Wheat ([12]; Rate 250 g/ha, Postemergence): 7
- Wheat plant response rating [12, 23]: 9
- Wild oats plant response rating [13, 17]: 1
- Wild oats plant response rating [13, 18]: 9
- Plant response rating, Wild oats [13, 19]: 10
- Wild oats plant response rating [13, 20]: 0
- Wild oats plant response rating [13, 21]: 0
- Wild oats plant response rating [13, 22]: 3
- Plant response rating (0 to 10; 0 is no effect, 10 is complete control), Wild oats ([13]; Rate 250 g/ha, Postemergence): 0
- Wild oats plant response rating [13, 23]: 3
- Nutsedge plant response rating ([14]; Rate 62 g/ha, scale of 0 to 10 where 0 is no effect and 10 is complete control): 0
- Nutsedge plant response rating ([14]; Rate 125 g/ha, scale 0 to 10): 0
- Plant response rating (0 to 10; 0 is no effect, 10 is complete control), Nutsedge ([14]; Rate 250 g/ha): 0
- Nutsedge plant response rating ([14]; Rate 500 g/ha, scale 0 to 10, 0 no effect, 10 complete control): 4
- S. Flatsedge plant response rating [15, 24]: 0
- S. Flatsedge plant response rating [15, 25]: 0
- S. Flatsedge plant response rating [15, 26]: 0
- S. Flatsedge plant response rating [15, 27]: 0
- Barnyardgrass plant response rating [16, 24]: 0
- Barnyardgrass plant response rating [16, 25]: 0
- Barnyardgrass plant response rating [16, 26]: 0
- Barnyardgrass plant response rating [16, 27]: 0
